Experimental data: PubChem BioAssay (NCI)
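Interpolation was linear, between the two tested concentrations surrounding the appropriate level; five concentrations were tested over 48 hours in 96-well plates. GI50 is the concentration that inhibits growth by half. At the TGI there is no net growth.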

How the values were obtained:
Assay in all cases: NCI tumour cell line growth inhibition, 48 h
[1] = tested on: KM12 colon
[2] = tested on: SK-MEL-28 melanoma
[3] = tested on: RXF 393 renal
[4] = tested on: M14 melanoma
[5] = tested on: SN12C renal
[6] = tested on: UACC-257 melanoma
[7] = tested on: NCI-H23 lung
[8] = tested on: HCC-2998 colon
[9] = tested on: OVCAR-5 ovarian
[10] = tested on: A498 renal

Row | Compound | TGI [1] | TGI [2] | TGI [3] | TGI [4] | TGI [5] | TGI [6] | TGI [7] | TGI [8] | TGI [9] | TGI [10] | GI50 [9] | GI50 [1] | GI50 [2] | GI50 [3] | GI50 [4] | GI50 [5] | GI50 [10] | GI50 [7] | GI50 [8] | GI50 [6]
1 | Cc1ccc(S(=O)(=O)NCCCN(CCCNS(=O)(=O)c2ccc(C)cc2)S(=O)(=O)c2ccc(C)cc2)cc1 | > 100 µM | > 100 µM | > 100 µM | > 100 µM | > 100 µM | > 100 µM | > 100 µM | > 100 µM | – | – | – | – | – | – | – | – | – | – | – | –
2 | O=c1[nH]nc(-c2ccccc2)c(-c2ccccc2)c1-n1nc(-c2ccccc2)c2ccccc2c1=O | > 100 µM | > 100 µM | – | > 100 µM | > 100 µM | > 100 µM | > 100 µM | > 100 µM | > 100 µM | > 100 µM | – | – | – | – | – | – | – | – | – | –
3 | COc1ccccc1/C=C1\COc2ccc(O)c(O)c2C1=O | 3.89 µM | 4.44 µM | 2.97 µM | 8.38 µM | 5.31 µM | – | 6.11 µM | 3.25 µM | 5.48 µM | 18 µM | 2.33 µM | 1.73 µM | 1.91 µM | 1.51 µM | 2.19 µM | 1.48 µM | 3.4 µM | 2.04 µM | 1.76 µM | –
4 | CCOC(=O)c1cnc2ccc(Cl)cc2c1NCCCN(C)C | > 100 µM | 56.3 µM | – | 33 µM | > 100 µM | 34.9 µM | > 100 µM | > 100 µM | > 100 µM | 37.8 µM | 22.2 µM | 25.8 µM | 22.9 µM | – | 17.8 µM | 20.5 µM | 15.6 µM | 32.7 µM | 38.4 µM | 17.3 µM
5 | Clc1ccc(Cl)c(N/N=C\c2c[nH]c3ccccc23)c1 | 26.3 µM | – | 24.8 µM | 25.4 µM | 22.3 µM | 28.9 µM | 29.9 µM | 29.9 µM | 36.9 µM | 29.6 µM | 17.3 µM | 7.45 µM | – | 10.3 µM | 12.8 µM | 7.15 µM | 14.5 µM | 14.1 µM | 13.6 µM | 15.2 µM
6 | CC(=O)O[C@@H]1C=CC(=O)C2(CC(=O)O[C@@H]2/C=C(\C)CCC=C(C)C)C1 (stereo not given in full) | 4.16 µM | 7.79 µM | 0.962 µM | – | 2.27 µM | 2.6 µM | 1.33 µM | 1.99 µM | 1.08 µM | 3.81 µM | 0.267 µM | 1.3 µM | 2.15 µM | 0.185 µM | – | 0.997 µM | 1.73 µM | 0.365 µM | 0.601 µM | 1.03 µM
7 | CCN(CC)CCN(C)CC(C)(C)C(=O)/C=C/c1ccccc1 | 25.4 µM | 30.3 µM | – | 25.7 µM | 22.7 µM | 24.4 µM | 25.7 µM | 27.7 µM | 26.9 µM | 17.3 µM | – | – | – | – | – | – | – | – | – | –
8 | CN(C)CCCn1cnc2ncccc2c1=O | > 100 µM | > 100 µM | > 100 µM | > 100 µM | > 100 µM | – | > 100 µM | > 100 µM | > 100 µM | – | – | – | – | – | – | – | – | – | – | –
9 | C=CCCc1cc(OC)ccc1CN(C)C(C)(C)CO | > 100 µM | > 100 µM | > 100 µM | – | > 100 µM | > 100 µM | > 100 µM | – | > 100 µM | > 100 µM | – | – | – | – | – | – | – | – | – | –
10 | CCOP1(=O)OCC2OC(n3cnc4c(N)ncnc43)C(O)C2O1 (stereo not given) | > 100 µM | > 100 µM | > 100 µM | > 100 µM | > 100 µM | > 100 µM | – | – | > 100 µM | > 100 µM | – | – | – | – | – | – | – | – | – | –
11 | C#Cc1cccc(NC(=O)Nc2ccccc2NC(=O)CCl)c1 | 26.5 µM | > 82.5 µM | 26.1 µM | > 82.5 µM | 33.5 µM | > 82.5 µM | 48.5 µM | 29.8 µM | 41.9 µM | – | 17.4 µM | 14.2 µM | 23.7 µM | 12.1 µM | 27.8 µM | 15.1 µM | – | 16.9 µM | 15.3 µM | 26.7 µM
12 | CN1CCC(O)C(CNC23CC4CC(CC(C4)C2)C3)C1 (stereo not given) | > 100 µM | – | > 100 µM | – | > 100 µM | > 100 µM | > 100 µM | – | > 100 µM | > 100 µM | – | – | – | – | – | – | – | – | – | –
13 | CCOC(=O)C(C(=O)c1ccccc1-c1ccccc1C(=O)O)=P(c1ccccc1)(c1ccccc1)c1ccccc1 | – | 33.3 µM | 73.1 µM | > 100 µM | > 100 µM | 76.4 µM | 40 µM | 47.7 µM | – | 88.8 µM | – | – | – | – | – | – | – | – | – | –
14 | O=C1CCC/C=C\C[C@H]2C=C(Cl)C(=O)/C2=C/C[C@H](CCCCC(F)(F)F)OC(=O)CCC/C=C\C[C@H]2C=C(Cl)C(=O)/C2=C/C[C@H](CCCCC(F)(F)F)O1 | 1.38 µM | 0.419 µM | 0.279 µM | 0.614 µM | – | 2.3 µM | 0.868 µM | 0.64 µM | 2.08 µM | 2.12 µM | 0.34 µM | 0.291 µM | 0.166 µM | 0.134 µM | 0.192 µM | – | 0.965 µM | 0.236 µM | 0.215 µM | 0.685 µM
15 | Cn1cc(-c2ccc3cc(-c4ccc(CC(=O)Nc5cc(C(C)(C)C)nn5C)cc4)cnc3c2)cn1 | > 100 µM | > 100 µM | – | > 100 µM | > 100 µM | > 100 µM | > 100 µM | > 100 µM | > 100 µM | 0.175 µM | 0.606 µM | 0.0233 µM | 0.41 µM | – | 0.144 µM | 0.23 µM | 0.0246 µM | 0.407 µM | 0.443 µM | 0.425 µM
16 | O=C(CC1Sc2ccccc2NC1=O)Nc1cccc(Cl)c1 (stereo not given) | – | 89.7 µM | 80.4 µM | > 100 µM | > 100 µM | > 100 µM | > 100 µM | > 100 µM | > 100 µM | > 100 µM | – | – | – | – | – | – | – | – | – | –
17 | COc1ccc(C(=O)O/N=C2\CCCC\C2=C/c2ccccc2)cc1 | – | > 100 µM | – | > 100 µM | > 100 µM | – | 41.5 µM | > 100 µM | – | > 100 µM | – | – | – | – | – | – | – | – | – | –
18 | N#Cc1c([N+](=O)[O-])cc(C(F)(F)F)cc1[N+](=O)[O-] | 12.4 µM | 21.2 µM | 6.62 µM | 17.1 µM | 27.3 µM | 19.2 µM | 19.2 µM | – | 32.5 µM | 32.9 µM | – | – | – | – | – | – | – | – | – | –
